Reference: patent US5747503A, “Selective inhibitors of biogenic amine transporters” (priority 1996, dated 1998)
Entries after “also recorded” stand apart in the source; their conditions may differ. Where two headings read alike, the source gives them in different places.

How the values were obtained:
PCP site 1 = experiment: [^3 H](+)-MK801 binding to PCP site 1; design: species or system guinea pig
Protocol: Large batches of frozen membranes were prepared with minor modifications of published procedures (Rothman, et al. (1989), supra). Twenty to thirty frozen guinea pig brains with cerebellum were thawed for 15 minutes and homogenized with a Polytron in ice-cold 5 mM Tris-HCl, pH 8.0 (10 ml/brain). The homogenate was centrifuged at 37,000×g for 10 minutes, and the pellet was washed by resuspension in the same volume of buffer followed by recentrifugation. The pellets were resuspended in an equal volume of 5 mM Tris-HCl, pH 8.0, and the concentration was adjusted to 50 mM by the addition of 1M Tris-HCl, pH 8.0. The homogenate was centrifuged for 10 min at 37,000×g. The pellets were then washed three times by resuspension and centrifugation using 50 mM Tris-HCl, pH 8.0. The final pellets were resuspended in the Tris-HCl buffer (0.5 ml/brain), pooled and 1 ml aliquots were distributed to microfuge tubes, which were stored at -70° for assay. […]
(§1) Inhibition curves were fit to the two parameter logistic equation for the best-fit estimates of the IC50 using nonlinear least squares curve fitting methods as previously described (Rothman et al. (1993), supra); Jones, S. M. and Rogawski, M. A. Mol. Neuropharmacol. 2: 303-310 (1992)).
^a The binding assays for PCP (site 2) and PCP (site 1) were conducte
as previously reported (Rothman, R. B., et al., In: Multiple Sigma and PC
Receptor Ligands: Mechanisms for Neuromodulation and Protection 307-330
(Domino, E. F. and Kamenka, J. M., eds., 1992) using [^3 H]TCP in the
presence of (+)MK801 for site 2 and [^3 HMK801 for site 1 except that

NMDA receptor [1] = experiment: NMDA-induced current in cultured hippocampal neurons, whole-cell recording; type: cell-based, rat; details: for IC50: Table 2
Protocol: Whole-cell recordings of NMDA-induced currents in cultured rat hippocampal neurons were carried out as described previously (Subramaniam, S., et al. Neurosci. Lett. 147: 213-216 (1992)). Hippocampal neurons grown in primary culture from 19-day-old Sprague-Dawley rat embryos were used 7-14 days after plating. The extracellular recording solution consisted of (in mM): 140 NaCl, 5 KCl, 0.1 CaCl2, and 10 HEPES (osmolality, 315-325 mOsm; pH, 7.4). Tetrodotoxin (1 μM) and strychnine (1 μM) were added to block Na+channel currents and glycine-activated Cl^- currents, respectively. Patch pipettes (2-5 M.OMEGA.) were prepared from filament-containing thin wall glass capillary tubes and filled with an intracellular solution that consisted of (in mM): 145 CsCl, 2 MgCl2, 5 HEPES, 0.1 CaCl2, and 1 EGTA (osmolality, 310 mOsm; pH, 7.4). Drugs were dissolved in recording solution and applied via a rapid gravity-fed perfusion system. Flow of the drug solutions was regulated by a microvalve operated by a programmable controller.
as §1

[^3 H]5-HT uptake = Synaptosomal [^3 H]5-HT uptake inhibition; type: biochemical, rat; details: for IC50: Table 2, nM ± SD, whole rat brain minus cerebellum synaptosomes
Protocol: (§2) Synaptosomal uptake assays were carried out as described (Rothman et al. (1993), supra). Briefly, synaptosomes were prepared by homogenization of rat striatum (for [^3 H]DA reuptake) or whole rat brain minus cerebellum (for [^3 H]5-HT reuptake) in ice-cold 10% sucrose, using a Potter-Elvehjem homogenizer. After a 1000×g centrifugation for 10 min at 4° C., the supernatants were retained on ice. The uptake assays were initiated by the addition of 100 μl of synaptosomes to 12×75 mm polystyrene test tubes, which were prefilled with 750 μl of [^3 H]ligand (2 nM [^3 H]5-HT or 5 nM [^3 H]DA) in a Krebs-phosphate buffer (pH 7.4), which contained ascorbic acid (1 mg/ml) and pargyline (50 μM) (buffer), 100 μl of test drugs made up in buffer containing 1 mg/ml bovine serum albumin, and 50 μl of buffer. The [^3 H]5-HT reuptake experiments were conducted in the presence of 100 nM nomifensine and […] GBR12935 in order to block any possible reuptake into NE and DA nerve terminals. […] The nonspecific uptake of each [^3 H]ligand was measured by incubations in the presence of 1 μM GBR12909 ([^3 H]DA) and 10 μM fluoxetine ([^3 H]5-HT). The incubations were terminated after a 15 min ([^3 H]DA) or 30 min ([^3 H]5-HT) incubation at 25° C. by adding 4 ml of wash buffer (10 mM TRIS-HCl, pH 7.4 containing 0.9% NaCl at 25° C.), followed by rapid filtration over Whatman GF/B filters and one additional wash cycle. […] The Krebs-phosphate buffer contained 154.5 mM NaCl, 2.9 mM KCl, 1.1 mM CaCl2, 0.83 mM MgCl2 and 5 mM glucose. The tritium retained on the filters was counted, in a Taurus beta counter, after an overnight extraction into ICN Cytoscint cocktail.
as §1
(§3) Synaptosomal uptake and ligand binding assays were conducted as described
(§4) above. Preliminary experiments were conducted to determine the doserange
(§5) Each [^3 H] ligand was displaced
(§6) by 10 concentrations of test drug. The data of two experiments were
(§7) pooled, and fit to the two parameter logistic equation for the bestfit
(§8) estimates of the IC50 reported above.

[2] = test system: eleven neurotransmitter, four regulatory site, four ion channel, and three second-messenger assays; experiment: NovaScreen/NIMH Psychoactive Drug Discovery Program panel; details: 10^-5 M
Protocol: Compound 3b also was tested in the NovaScreen/NIMH Psychoactive Drug Discovery Program which included eleven neurotransmitter, four regulatory site, four ion channel, and three second-messenger assays.

[^3 H]DA uptake = Synaptosomal [^3 H]DA uptake inhibition; type: biochemical, rat; details: for IC50: Table 2, nM ± SD, rat striatum synaptosomes
Protocol: as §2, §1, §3, §4, §5, §6, §7, §8

[3] = test system: extracellular dopamine in the nucleus accumbens; details: literature; cited from earlier work
NMDA receptor [4] = details: Table 2; literature values (footnotes 1 and 2); read-out: NMDA Induced Current IC50; cited from earlier work
DA transporter = details: Kuhar et al. 1990; cited from earlier work

## CN1[C@H](Cc2ccccc2)C[C@H]2Cc3ccccc3[C@H]21 (relative stereo) [RTI-4793-14, (2RS, 3aSR, 8aRS)-1,2,3a,8,8a-Hexahydro-2-benzyl-1-methyl-indeno[1,2-b]pyrrole]
PCP site 1
  IC50: > 36000 nM
  affinity for PCP site 1 in words: low affinity
PCP site 1; Table 1, [^3 H]MK801
  IC50: > 20000 nM
PCP site 1; Table 2, nM ± SD
  IC50: > 36000 nM
PCP site 1; Table 3, guinea pig membranes
  IC50: > 2000 nM
NMDA receptor [1]
  inhibition of NMDA-induced current responses in words: low potency; also recorded: very low potency inhibitor
  IC50: 768000 nM
[^3 H]5-HT uptake
  [^3 H]5-HT uptake inhibition in words: moderate potency
  IC50: 1020 ± 72 nM
[2]
  inhibition in NovaScreen panel: No significant inhibition
[^3 H]DA uptake
  [^3 H]DA uptake inhibition in words: moderate potency
  IC50: 547 ± 20 nM

## C[C@]12N[C@H](Cc3ccccc31)c1ccccc12 [(+)-MK801]
PCP site 1
  affinity for PCP site 1 in words: high affinity
PCP site 1; Table 1, [^3 H]MK801
  IC50: 4.58 ± 0.19 nM
PCP site 1; Table 2, nM ± SD
  IC50: 4.58 ± 0.19 nM
PCP site 1; versus PCP
  greater potency at PCP site 1 than PCP: 25 fold
[^3 H]5-HT uptake
  [^3 H]5-HT uptake inhibition in words: negligible affinity
  IC50: > 4700 nM
[^3 H]DA uptake
  [^3 H]DA uptake inhibition in words: negligible affinity
  IC50: > 10000 nM

## CNC1CC(c2ccc(Cl)c(Cl)c2)c2ccccc21 (stereo not shown) [Indatraline]
PCP site 1
  IC50: > 100000 nM
  affinity for PCP site 1 in words: negligible affinity
PCP site 1; Table 2, nM ± SD
  IC50: > 100000 nM
NMDA receptor [1]
  inhibition of NMDA-induced current responses in words: very low potency
  IC50: 95000 nM
[^3 H]5-HT uptake
  [^3 H]5-HT uptake inhibition in words: potently inhibited; also recorded: potent inhibitor
  IC50: 4.49 ± 0.21 nM
[3]
  effect on extracellular DA levels: increase extracellular DA levels
[^3 H]DA uptake
  [^3 H]DA uptake inhibition in words: potently inhibited; also recorded: potent inhibitor
  IC50: 3.23 ± 0.45 nM

## c1ccc(C2(N3CCCCC3)CCCCC2)cc1 [PCP, phencyclidine]
PCP site 1; Table 1, [^3 H]MK801
  IC50: 117 ± 3 nM
PCP site 1; Table 2, nM ± SD
  IC50: 117 ± 3 nM
[^3 H]5-HT uptake
  IC50: 1420 nM
[3]
  effect on extracellular DA levels: increase extracellular DA levels
NMDA receptor [4]
  IC50: 2000 nM
DA transporter
  affinity at the DA transporter labeled with [^3 H]mazindol: low affinity
[^3 H]DA uptake
  IC50: 347 nM
